In US5955337A, “DNA encoding GLS1” (Merck & Co., Inc., priority 1996, dated 1999):
Read-outs that look alike come from different tables or passages of the source. *1 amine or outer side, *2 acyl side, *3 side chain or, on linkers, in order; H or OH if unused. Where a SMILES comes first, the peptide text is derived from it. Bridges are numbered along the chain shown (N, C = ends). [ ]: non-standard residue; d: D form. The star is where a group is joined. dOrn(4R-OH,5R-OH) = O=C([C@@H](C[C@@H](O)[C@@H](O)N[*:3])N[*:1])[*:2]; Tetradecanoyl(10R,12S-Me2) = CC[C@H](C)C[C@H](C)CCCCCCCCC(=O)*; hTyr(3S-OH,4S-OH) = N[C@H](C(=O)O)[C@H](O)[C@@H](O)c1ccc(O)cc1; Pro(3S-OH,4S-Me) = C[C@H]1CN[C@H](C(=O)O)[C@H]1O; Gln(3R-OH) = NC(=O)C[C@@H](O)[C@H](N)C(=O)O; Hyp = O=C(O)[C@@H]1C[C@@H](O)CN1

Experiments:
[1] = tested on: X2180 (WT); experiment: Zone of growth inhibition assay, wild-type strain; type: cell-based, Saccharomyces cerevisiae; settings: μg/Disc: L,733-560 20; L-688-786 10; Aculeacin 50; Papulacandin 50; Nikkomycin Z 10; Rapamycin 12.5
Description: (§1) Mutations of the GLS1 gene, including but not limited to gls1-1 (strain MS1), gls1-2 (strain MS41) and gls1-3 (strain MS43), or disruptions or deletions of GLS1, are useful for screening for glucan synthase inhibitors. Such a screen relies on the increase in echinocandin-resistance and in papulacandin sensitivity of such mutants compared to an GLS1 wild-type strain. Any technique capable of detecting this difference in sensitivity can be used. A zone of inhibition assay on agar plates is particularly useful.
(§2) The GLS1 and the fks1-4 mutants can be incorporated into an assay to screen and classify antifungal compounds with chitin and glucan synthase inhibitory effects, based on their differential resistance/sensitivity to the echinocandins, papulacandin and Nikkomycin Z. The data from this assay and the sizes of the zones of growth inhibition in millimeter is given in the following table: […]

[2] = tested on: MS1 (gls1-1); experiment: Zone of growth inhibition assay, gls1-1 mutant; type: cell-based, Saccharomyces cerevisiae; settings: μg/Disc: L,733-560 20; L-688-786 10; Aculeacin 50; Papulacandin 50; Nikkomycin Z 10; Rapamycin 12.5
Description: as §1, §2

[3] = tested on: MS14 (fks1-4); experiment: Zone of growth inhibition assay, fks1-4 mutant; type: cell-based, Saccharomyces cerevisiae; settings: μg/Disc: L,733-560 20; L-688-786 10; Aculeacin 50; Papulacandin 50; Nikkomycin Z 10; Rapamycin 12.5
Description: as §1, §2

[4] = tested on: fks1-4 mutant (strain MS14); experiment: Resistance/sensitivity of fks1-4 mutant relative to wild-type; type: cell-based, Saccharomyces cerevisiae; settings: fks1-4 mutant vs wild-type
Description: as §2

[5] = tested on: Strain MS1 (gls1-1 mutant); experiment: Effect of antifungal drugs on strain MS1 relative to wild-type parental strain; type: cell-based, Saccharomyces cerevisiae; settings: FIG. 2, FIG. 10
Procedure: To quantitate the echinocandin sensitivity/resistance of the mutant strains, yeast cells grown to log phase were inoculated into 2 ml SC broth and incubated overnight at 28° C. A flat bottom 96-well microtiter plate was seeded with 75 μl of SC medium in columns 2 through 12. To column 1, 150 μl medium was added. Echinocandin (L-733,560) was prepared at a concentration of 30 μg/ml solution in sterile distilled water. An aliquot (75 μl) of echinocandin solution was added to column 3, and 75 μl from column 3 was transferred to column 4, followed by mixing of the contents of each well. 75 μl from column 4 was transferred into column 5, and the serial dilution was carried on to column 12 from which a 75 μl was discarded. A dilution of 6×10^5 cells/ml in URA drop out medium was prepared from the yeast strains. 75 μl cell suspension was then added to columns 2 through 12 giving 4.5×10^4 cells/well. The plates were incubated at 28° C. for 24-48 hr. Growth in the presence and absence of echinocandin was measured by absorbance at 600 nm.

[6] = tested on: Pneumocystis carinii; settings: rat model of P. carinii pneumonia; Schmatz et al. 1990; cited from earlier work
[7] = biological target: T1, 1,3-β-glucan synthase (Saccharomyces cerevisiae, UniProt P06780); experiment: biochemical
T1 construct: Membrane extracts were prepared from mutant and wild-type cells grown to logarithmic phase; endogenous in cells; host or cells: S. cerevisiae X2180-1A (wild-type) and MS1 (gls1-1 mutant), washed 100,000×g membrane pellet
T1 sequence (P38631 whole entry): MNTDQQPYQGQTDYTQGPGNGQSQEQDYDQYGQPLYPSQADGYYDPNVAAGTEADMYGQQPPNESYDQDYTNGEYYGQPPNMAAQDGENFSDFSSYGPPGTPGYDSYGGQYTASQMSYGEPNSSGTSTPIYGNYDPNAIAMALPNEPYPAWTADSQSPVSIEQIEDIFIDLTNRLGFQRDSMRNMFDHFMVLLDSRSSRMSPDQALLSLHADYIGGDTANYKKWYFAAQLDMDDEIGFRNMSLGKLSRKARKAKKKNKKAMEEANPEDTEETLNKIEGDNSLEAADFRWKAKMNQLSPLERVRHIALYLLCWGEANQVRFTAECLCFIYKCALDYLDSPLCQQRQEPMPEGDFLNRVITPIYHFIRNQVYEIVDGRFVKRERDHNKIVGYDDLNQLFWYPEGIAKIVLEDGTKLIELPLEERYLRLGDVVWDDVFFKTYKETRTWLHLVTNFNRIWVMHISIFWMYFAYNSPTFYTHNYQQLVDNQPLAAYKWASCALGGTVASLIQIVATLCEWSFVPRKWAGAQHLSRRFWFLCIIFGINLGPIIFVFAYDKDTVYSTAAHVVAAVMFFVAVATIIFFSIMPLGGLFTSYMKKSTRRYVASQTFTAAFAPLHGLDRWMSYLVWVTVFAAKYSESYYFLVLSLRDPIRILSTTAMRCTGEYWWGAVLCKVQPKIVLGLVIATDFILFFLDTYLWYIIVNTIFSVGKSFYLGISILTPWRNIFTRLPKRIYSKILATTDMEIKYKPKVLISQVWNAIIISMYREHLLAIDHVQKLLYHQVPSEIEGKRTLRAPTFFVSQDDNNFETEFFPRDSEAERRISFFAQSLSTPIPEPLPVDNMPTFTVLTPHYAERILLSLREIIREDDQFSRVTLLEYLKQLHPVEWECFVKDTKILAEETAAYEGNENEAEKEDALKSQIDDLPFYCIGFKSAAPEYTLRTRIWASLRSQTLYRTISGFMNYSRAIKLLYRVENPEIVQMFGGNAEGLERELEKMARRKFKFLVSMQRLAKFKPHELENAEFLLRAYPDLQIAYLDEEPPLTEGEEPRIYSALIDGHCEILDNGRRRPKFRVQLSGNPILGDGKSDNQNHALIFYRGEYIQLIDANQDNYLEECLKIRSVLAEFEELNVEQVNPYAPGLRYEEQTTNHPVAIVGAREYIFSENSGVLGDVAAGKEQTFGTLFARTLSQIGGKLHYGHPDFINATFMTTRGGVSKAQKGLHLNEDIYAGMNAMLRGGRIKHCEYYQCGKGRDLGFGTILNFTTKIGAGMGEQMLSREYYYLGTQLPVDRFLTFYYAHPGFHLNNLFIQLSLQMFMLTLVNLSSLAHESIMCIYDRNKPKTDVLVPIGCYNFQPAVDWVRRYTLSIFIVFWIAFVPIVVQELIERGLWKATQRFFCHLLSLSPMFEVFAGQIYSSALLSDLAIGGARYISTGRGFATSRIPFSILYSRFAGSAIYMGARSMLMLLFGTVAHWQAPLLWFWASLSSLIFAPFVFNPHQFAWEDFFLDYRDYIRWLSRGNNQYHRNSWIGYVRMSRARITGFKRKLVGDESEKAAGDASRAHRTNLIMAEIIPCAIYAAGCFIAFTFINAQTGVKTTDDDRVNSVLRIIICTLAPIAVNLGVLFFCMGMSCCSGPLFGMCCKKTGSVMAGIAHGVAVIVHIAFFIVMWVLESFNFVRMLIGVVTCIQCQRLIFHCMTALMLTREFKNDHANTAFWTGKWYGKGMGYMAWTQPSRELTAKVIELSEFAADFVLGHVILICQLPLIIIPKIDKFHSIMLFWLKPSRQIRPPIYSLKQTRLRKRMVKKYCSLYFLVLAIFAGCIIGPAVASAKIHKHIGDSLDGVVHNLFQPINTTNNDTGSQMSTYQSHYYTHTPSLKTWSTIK
T1 sequence (P06780 2-206): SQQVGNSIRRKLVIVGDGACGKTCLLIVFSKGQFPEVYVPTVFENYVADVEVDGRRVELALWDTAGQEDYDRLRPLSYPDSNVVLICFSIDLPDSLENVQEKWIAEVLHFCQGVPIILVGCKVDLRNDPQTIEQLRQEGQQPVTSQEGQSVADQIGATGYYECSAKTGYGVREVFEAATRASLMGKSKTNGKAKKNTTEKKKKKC
Procedure: Membrane extracts were prepared from mutant and wild-type cells grown to logarithmic phase (Kang and Cabib, PNAS, 83, 5808-5812, 1986). After homogenization with glass beads, unbroken cells and debris were removed by low speed centrifugation (1,000×g for 5 min). The supernatant fluids were centrifuged at 100,000×g for 60 min, and the resulting pellets were washed with 2.5 ml (per gram of wet cells) of buffer containing 0.05 M potassium phosphate (pH 7.5), 0.5 mM DTT, and 1.0 mM PMSF. The washed pellet was resuspended in the same buffer containing 5% glycerol. This protein extract served as the source for both 1,3-β-glucan synthase and the chitin synthases utilized in the enzymatic assays.
Protein concentrations were determined using BCA protein assay reagent kit (Pierce Corp.), utilizing bovine serum album (BSA; Pierce Corp.) as a standard. The 1,3-β-glucan synthase reactions were performed as previously described (Cabib, E., and M. S. Kang. 1987. Fungal 1,3-b-glucansynthase, Methods Enzymol. 138: 637-642). Briefly, an […] reaction contained 125 mM Tris HCL (pH7.5), 0.25 mM dithiothretol, 30 mM KF, 0.3 M glycerol, 0.23% BSA, 0.125 mM PMSF, 2 mM UDP-glucose, […] guanosine 5'-(g-thio) triphosphate (GTPγS), 0.1 nmol UDP-[^3 H] glucose (Amersham; 4.5 Ci/mmol;) plus […] of membrane protein extract. The reactions were performed in the presence of 0.0, 0.1, 0.5, 5, 25 and 50 mM L, 733-560 for dose titration of the drug. Following incubation at 25° C. for 150 minutes, the [^3 H]-glucose incorporated into trichloroacetic acid-insoluble material was collected onto glass fiber filters (102×258 mm) and measured using a betaplate liquid scintillation counter (Cambridge Technologies Inc.; series 2800 harvester) at 25% efficiency. The product of such reactions was verified by solubilization by laminarinase (Sigma, #L9259) but not by α-amylase (Sigma, #A2643).
To study activation of 1,3-β-glucan synthesis by GTPγS incorporation of UDP-glucose into 1,3-β-D glucans, in absence and in presence of 3.3 uM GTPγS was measured. […]

Compound	size of the zone of growth inhibition, X2180 (WT) [1] [millimeter]	size of the zone of growth inhibition, MS1 (gls1-1) [2] [millimeter]	size of the zone of growth inhibition, MS14 (fks1-4) [3] [millimeter]	fold more sensitive than wild-type, fks1-4 mutant (MS14) [4] [fold]	sensitivity/resistance of MS1 cells compared with wild-type parental strain [5]	reduction of the number of cysts in the lungs of infected rats [6]	response of MS1 mutant enzymatic activity to increasing concentrations of GTPγS ([7]; MS1 mutant membranes, FIG. 5)	fold induction at 3.3 µM ([7]; read-out: stimulation of glucan synthesis by GTPγS, MS1 mutant enzyme)	fold induction at 3.3 µM ([7]; read-out: stimulation of glucan synthesis by GTPγS, first value)
C[C@@H]([C@H](N)C(=O)N[C@H](C(=O)O)[C@H]1O[C@@H](n2ccc(=O)[nH]c2=O)[C@H](O)[C@@H]1O)[C@H](O)c1ccc(O)cn1 [Nikkomycin Z]	0.0	0.0	30.0	1000					
CCC(O)/C=C/C=C/C=C/C(=O)OC[C@H]1O[C@@H](O[C@H]2[C@H](OC(=O)/C=C/C=C/CC(O)/C(C)=C/C=C/CCC(C)CC)[C@@H](O)[C@@]3(OCc4cc(O)cc(O)c43)O[C@@H]2CO)[C@H](O)[C@@H](O)[C@H]1O (stereo partly shown) [Papulacandin]	10	20	10		more sensitive				
CC[C@H](C)C[C@H](C)CCCCCCCCC(=O)N[C@@H]1C[C@@H](O)[C@@H](O)NC(=O)[C@@H]2[C@@H](O)[C@@H](C)CN2C(=O)[C@H]([C@H](O)CC(N)=O)NC(=O)[C@H]([C@H](O)[C@@H](O)c2ccc(O)cc2)NC(=O)[C@@H]2C[C@@H](O)CN2C(=O)[C@H]([C@@H](C)O)NC1=O [L-671,329] ({Tetradecanoyl(10R,12S-Me2)}-[dOrn(4R-OH,5R-OH)]T[Hyp][hTyr(3S-OH,4S-OH)][Gln(3R-OH)][Pro(3S-OH,4S-Me)]; lactam 1-C)						effective in reducing the number of cysts			
CO[C@H]1C[C@@H]2CC[C@@H](C)[C@@](O)(O2)C(=O)C(=O)N2CCCC[C@H]2C(=O)O[C@H]([C@H](C)C[C@@H]2CC[C@@H](O)[C@H](OC)C2)CC(=O)[C@H](C)/C=C(\C)[C@@H](O)[C@@H](OC)C(=O)[C@H](C)C[C@H](C)/C=C/C=C/C=C/1C [Rapamycm, rapamycin]	0.0	13	0.0		more sensitive				
Nc1nc2c(ncn2[C@@H]2O[C@H](COP(=O)(O)OP(=O)(O)OP(O)(O)=S)[C@@H](O)[C@H]2O)c(=O)[nH]1 [GTPγS, guanosine 5'-(g-thio) triphosphate]							responded rather poorly	6	~19
Aculeacin	15	9	0.0						
